# Patent publication US10722514B2 (FLX Bio, Inc., priority 2017, dated 2020)
# Counter-ions that a name gives are not always drawn.
# Molecular target: T1, recombinant full-length USP7 (Homo sapiens, UniProt Q93009)
# T1 construct: A 25 μl reaction volume containing recombinant full-length USP7 (62 pM)
# Assay: USP7-mediated ubiquitin-rhodamine cleavage assay
# Assay type: biochemical
# Details: recombinant full-length USP7 62 pM; ubiquitin-rhodamine 100 nM; 30-minute incubation with compound, 1 hour reaction at room temperature; read-out: Potency: USP7 IC50
# Procedure, shortened: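 Full-length recombinant USP7 (62 pM) in 20 mM HEPES pH 7.3, 150 mM NaCl, 1 mM TCEP, 125 μg/ml BSA, 1% DMSO, preincubated with compound 30 min at RT. Ubiquitin-rhodamine (100 nM final) cleaved 1 h at RT in the dark, stopped with acetic acid; rhodamine fluorescence read, IC50 by 4-parameter nonlinear fit.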
# T1 sequence (Q93009 whole entry): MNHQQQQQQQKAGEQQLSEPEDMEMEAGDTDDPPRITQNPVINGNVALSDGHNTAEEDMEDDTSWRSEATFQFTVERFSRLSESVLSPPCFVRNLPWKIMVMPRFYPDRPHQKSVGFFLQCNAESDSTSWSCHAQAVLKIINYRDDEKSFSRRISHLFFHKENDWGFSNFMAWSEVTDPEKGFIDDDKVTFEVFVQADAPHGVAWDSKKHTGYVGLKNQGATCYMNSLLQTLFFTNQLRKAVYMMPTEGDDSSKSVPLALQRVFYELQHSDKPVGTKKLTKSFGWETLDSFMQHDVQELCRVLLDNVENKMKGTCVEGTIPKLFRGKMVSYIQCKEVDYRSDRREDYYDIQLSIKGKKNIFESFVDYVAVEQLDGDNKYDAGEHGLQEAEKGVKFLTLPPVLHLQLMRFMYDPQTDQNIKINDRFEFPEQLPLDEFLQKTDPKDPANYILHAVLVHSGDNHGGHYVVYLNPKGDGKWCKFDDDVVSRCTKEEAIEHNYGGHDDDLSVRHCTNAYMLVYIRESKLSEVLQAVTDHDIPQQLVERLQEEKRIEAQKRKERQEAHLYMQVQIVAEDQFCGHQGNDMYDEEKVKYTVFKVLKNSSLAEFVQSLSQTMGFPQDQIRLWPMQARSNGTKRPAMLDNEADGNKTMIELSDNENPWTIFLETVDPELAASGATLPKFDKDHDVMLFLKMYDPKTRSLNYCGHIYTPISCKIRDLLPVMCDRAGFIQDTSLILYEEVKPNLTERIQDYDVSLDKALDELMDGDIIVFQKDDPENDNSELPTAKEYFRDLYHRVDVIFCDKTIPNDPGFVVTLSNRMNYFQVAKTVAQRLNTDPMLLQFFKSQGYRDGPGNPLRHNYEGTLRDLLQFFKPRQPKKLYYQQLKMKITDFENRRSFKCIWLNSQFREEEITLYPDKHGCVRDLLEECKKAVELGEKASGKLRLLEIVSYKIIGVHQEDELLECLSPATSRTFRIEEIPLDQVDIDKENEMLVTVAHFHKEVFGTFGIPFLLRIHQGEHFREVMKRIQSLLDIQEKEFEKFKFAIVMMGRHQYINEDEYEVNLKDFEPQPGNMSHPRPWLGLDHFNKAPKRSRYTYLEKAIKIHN
row,SMILES,IC50
1,"Cc1cc(Cl)cc(-c2ccnc3c(F)c(CN4C(=O)CCC4=O)sc23)c1O[C@H]1CCCNC1 [Example 163, (S)-1-((7-(5-Chloro-3-methyl-2-(piperidin-3-yloxy)phenyl)-3-fluorothieno[3,2-b]pyridin-2-yl)methyl)pyrrolidine-2,5-dione]",< 1000 nM
2,"Cc1cc(Cl)cc(-c2ncnc3cc(CN4C(=O)C5C(C4=O)C5(C)C)sc23)c1O[C@@H]1CNC[C@@H]1C (stereo partly drawn) [Example 349, 3-[[4-[5-chloro-3-methyl-2-[(3S,4S)-4-methylpyrrolidin-3-yl]oxy-phenyl]thieno[3,2-d]pyrimidin-6-yl]methyl]-6,6-dimethyl-3-azabicyclo[3.1.0]hexane-2,4-dione]",< 1000 nM
3,"Cc1cc(Cl)cc(-c2ccnc3cc(CN4C(=O)C5C(C4=O)C5(C)C)sc23)c1O[C@H]1CC[C@H](C)NC1 (stereo partly drawn) [Example 399, 3-[[7-[5-chloro-3-methyl-2-[[(3S,6S)-6-methyl-3-piperidyl]oxy]phenyl]thieno[3,2-b]pyridin-2-yl]methyl]-6,6-dimethyl-3-azabicycllo[3.1.0]hexane-2,4-dione; 2,2,2-trifluoroacetic acid]",< 1000 nM
4,"Cc1cc(Cl)cc(-c2ccnc3cc(CN4C(=O)C5CCCCC5C4=O)sc23)c1O[C@@H]1CNC[C@@H]1F (stereo partly drawn) [Example 142, 2-((7-(5-Chloro-2-(((3R,4S)-4-fluoropyrrolidin-3-yl)oxy)-3-methylphenyl)thieno[3,2-b]pyridin-2-yl)methyl)hexahydro-1H-isoindole-1,3(2H)-dione]",< 1000 nM
5,"Cc1cc(Cl)cc(-c2ccnc3cc([C@H](C)N4C(=O)CCC4=O)sc23)c1O[C@@H]1CNC[C@@H]1F [Example 117, 1-((S)-1-(7-(5-Chloro-2-(((3R,4S)-4-fluoropyrrolidin-3-yl)oxy)-3-methylphenyl)thieno[3,2-b]pyridin-2-yl)ethyl)pyrrolidine-2,5-dione]",< 1000 nM
6,"CC[C@@H](c1cc2nccc(-c3cc(Cl)cc(C)c3O[C@@H]3CNC[C@@H]3F)c2s1)N1C(=O)CCC1=O [Example 137, 1-((S)-1-(7-(5-Chloro-2-(((3R,4S)-4-fluoropyrrolidin-3-yl)oxy)-3-methylphenyl)thieno[3,2-b]pyridin-2-yl)propyl)pyrrolidine-2,5-dione]",< 1000 nM
7,"CCN1C[C@H]2C[C@@H]1[C@H](Oc1c(C)cc(Cl)cc1-c1ncnc3cc(CN4C(=O)C5C(C4=O)C5(C)C)sc13)C2 (stereo partly drawn) [Example 356, 3-[[4-[5-chloro-2-[[(1S,4R,5R)-3-ethyl-3-azabicyclo[2.2.1]heptan-5-yl]oxy]-3-methyl-phenyl]thieno[3,2-d]pyrimidin-6-yl]methyl]-6,6-dimethyl-3-azabicyclo[3.1.0]hexane-2,4-dione dihydrochloride]",< 1000 nM
8,"Cn1nc2c(c1C1Cc3cc(Cl)cc(-c4ccnc5cc(CN6C(=O)C7C(C6=O)C7(C)C)sc45)c3O1)CNCC2 [Example 387, 3-[[7-[(2R)-5-chloro-2-(2-methyl-4,5,6,7-tetrahydropyraozlo[4,3-c]pyridin-3-yl)-2,3-dihydrobenzofuran-7-yl]thieno[3,2-b]pyridin-2-yl]methyl]-6,6-dimethyl-3-azabicyclo[3.1.0]hexane-2,4-dione dihydrochloride]",< 1000 nM
9,"Cc1cc(Cl)cc(-c2ccnc3cc(CCN4C(=O)CCS4(=O)=O)sc23)c1OC1CCNCC1 [Example 219, 2-(2-(7-(5-chloro-3-methyl-2-(piperidin-4-yloxy)phenyl)thieno[3,2-b]pyridin-2-yl)ethyl)isothiazolidin-3-one 1,1-dioxide]",10000 to 30000 nM
10,"Cc1cc(Cl)cc(-c2ccnc3cc(CN4C(=O)C5C(C4=O)C5(C)C)sc23)c1O[C@@H]1CCNC[C@@H]1F (stereo partly drawn) [Example 391, 3-[[7-[5-chloro-2-[[(3S,4R)-3-fluoro-4-piperidyl]oxy]-3-methyl-phenyl]thieno[3,2-b]pyridin-2-yl]methyl]-6,6-dimethyl-3-azabicyclo[3.1.0]hexane-2,4-dione; 2,2,2-trifluoroacetic acid]",< 1000 nM
11,"Cc1cc(Cl)cc(-c2ccnc3cc(CN4C(=O)C5C(C4=O)C5(C)C)sc23)c1OC1CNCC(C)(C)C1 [Example 362, 3-[[7-[5-chloro-2-[[(3S)-5,5-dimethyl-3-piperidyl]oxy]-3-methyl-phenyl]thieno[3,2-b]pyridin-2-yl]methyl-6,6-dimethyl-3-azabicyclo[3.1.0]hexane-2,4-dione]",< 1000 nM
12,"Cc1cc(Cl)cc(-c2ccnc3cc([C@H](C)N4C(=O)CCC4=O)sc23)c1O[C@H]1CCCNC1 [Example 241, 1-((S)-1-(7-(5-Chloro-3-methyl-2-(((S)-piperidin-3-yl)oxy)phenyl)thieno[3,2-b]pyridin-2-yl)ethyl)pyrrolidine-2,5-dione]",< 1000 nM
13,"Cc1cc(Cl)cc(-c2ccnc3cc(CO)sc23)c1O[C@@H]1CNC[C@@H]1N=[N+]=[N-] [Example 191, (7-(2-(((3R,4S)-4-Azidopyrrolidin-3-yl)oxy)-5-chloro-3-methylphenyl)thieno[3,2-b]pyridin-2-yl)methanol]",1000 to 10000 nM

# The next lines start with the values.
row,IC50,SMILES
1,< 1000 nM,"Cc1cc(Cl)cc(-c2ccnc3cc(Cn4c(=O)ccn(CC(F)(F)F)c4=O)sc23)c1O[C@@H]1CNCC[C@@H]1C [Example 337, 3-[[7-[5-chloro-3-methyl-2-[[(3S,4S)-4-methyl-3-piperidyl]oxy]phenyl]thieno[3,2-b]pyridin-2-yl]methyl]-1-(2,2,2-trifluoroethyl)pyrimidine-2,4-dione]"
2,< 1000 nM,"Cc1cc(Cl)cc(-c2ccnc3cc(CN4C(=O)CCC4=O)sc23)c1O[C@H]1CCCCNC1 [Example 268, (S)-1-((7-(2-(azepan-3-yloxy)-5-chloro-3-methylphenyl)thieno[3,2-b]pyridin-2-yl)methyl)pyrrolidine-2,5-dione]"
3,1000 to 10000 nM,"CCC(O)c1cc2nccc(-c3cc(C#N)cc(C)c3OCC3(F)CNC3)c2s1 (centres unmarked) [Example 36, 4-((3-Fluoroazetidin-3-yl)methoxy)-3-(2-(1-hydroxypropyl)thieno[3,2-b]pyridin-7-yl)-5-methylbenzonitrile]"
4,10000 to 30000 nM,"Cc1cc(Cl)cc(-c2ccnc3ccsc23)c1OC1CCNCC1 [Example 180, 7-(5-Chloro-3-methyl-2-(piperidin-4-yloxy)phenyl)thieno[3,2-b]pyridine]"
5,< 1000 nM,"Cc1cc(Cl)cc(-c2ccnc3ccsc23)c1OCC1(C)CNC1 [Example 45, 7-(5-Chloro-3-methyl-2-((3-methylazetidin-3-yl)methoxy)phenyl)thieno[3,2-b]pyridine]"

# Same assay, conditions: recombinant full-length USP7 62 pM; ubiquitin-rhodamine 100 nM; 30-minute incubation, 1 hour reaction at room temperature; read-out: Potency (USP7 IC50)
row,IC50,SMILES
1,< 1000 nM,"COC1CCC(Oc2c(C)cc(Cl)cc2-c2ccnc3cc(Cn4c(=O)ccn(CC(F)(F)F)c4=O)sc23)CC1 (centres unmarked) [Example 674, 3-[[7-[5-chloro-2-(4-methoxycyclohexoxy)-3-methyl-phenyl]thieno[3,2-b]pyridin-2-yl]methyl]-1-(2,2,2-trifluoroethyl)pyrimidine-2,4-dione]"
2,< 1000 nM,"CCN(CC)C(=O)CN1CC[C@@H](Oc2c(C)cc(Cl)cc2-c2ccnc3cc(Cn4c(=O)ccn(CC(F)(F)F)c4=O)sc23)[C@@H](C)C1 [Example 692, 2-[(3S,4R)-4-[4-chloro-2-[2-[[2,6-dioxo-3-(2,2,2-trifluoroethyl)pyrimidin-1-yl]methyl]thieno[3,2-b]pyridin-7-yl]-6-methyl-phenoxy]-3-methyl-1-piperidyl]-N,N-diethyl-acetamide]"

# Same assay, conditions: recombinant full-length USP7 62 pM; ubiquitin-rhodamine 100 nM; 30-minute pre-incubation, 1 hour reaction at room temperature; read-out: Potency (USP7 IC50)
row,SMILES,IC50
1,"Cc1cc(C(F)(F)F)cc(-c2ccnc3cc(Cn4c(=O)ccn(C)c4=O)sc23)c1O[C@@H]1CC[C@@H](N)C1 [Example 456, 3-[[7-[2-[(1R,3R)-3-aminocyclopentoxy]-3-methyl-5-(trifluoromethyl)phenyl]thieno[3,2-b]pyridin-2-yl]methyl]-1-methyl-pyrimidine-2,4-dione dihydrochloride]",< 1000 nM
2,"Cc1cc(Cl)cc(-c2ccnc3cc(Cn4c(=O)ccn(CC(F)(F)F)c4=O)sc23)c1O[C@@H]1CN[C@H](C)C1 [Example 633, 3-[[7-[5-chloro-3-methyl-2-[(3S,5R)-5-methylpyrrolidin-3-yl]oxy-phenyl]thieno[3,2-b]pyridin-2-yl]methyl]-1-(2,2,2-trifluoroethyl)pyrimidine-2,4-dione]",< 1000 nM
3,"Cc1cc(Cl)cc(-c2ccnc3cc(Cn4c(=O)c(F)cn(C)c4=O)sc23)c1O[C@@H]1CNC[C@@H]1F [Example 470, 3-[[7-[5-chloro-2-[(3R,4S)-4-fluoropyrrolidin-3-yl]oxy-3-methyl-phenyl]thieno[3,2-b]pyridin-2-yl]methyl]-5-fluoro-1-methyl-pyrimidine-2,4-dione]",< 1000 nM

# Second part, the compound after the results:
row,IC50,SMILES
1,1000 to 10000 nM,"Cc1cc(Cl)cc(-c2ccncc2CCCN2C(=O)CCC2=O)c1OC1CNC[C@@H]1F (stereo partly drawn) [Example 409, 1-[3-[4-[5-chloro-2-[(4S)-4-fluoropyrrolidin-3-yl]oxy-3-methyl-phenyl]-3-pyridyl]propyl]pyrrolidine-2,5-dione; 2,2,2-trifluoroacetic acid]"
2,< 1000 nM,"Cc1cc(Cl)cc(-c2ncnc3cc(Cn4c(=O)ccn(CC(F)(F)F)c4=O)sc23)c1O[C@H]1CCCN(C)C1 [Example 521, 3-[[4-[5-chloro-3-methyl-2-[[(3S)-1-methyl-3-piperidyl]oxy]phenyl]thieno[3,2-d]pyrimidin-6-yl]methyl]-1-(2,2,2-trifluoroethyl)pyrimidine-2,4-dione]"
3,< 1000 nM,"Cc1cc(Cl)cc(-c2ccnc3cc(Cn4c(=O)ccn(C)c4=O)sc23)c1O[C@H]1CCN[C@@H](C)C1 [Example 593, 3-[[7-[5-chloro-3-methyl-2-[[(2S,4S)-2-methyl-4-piperidyl]oxy]phenyl]thieno[3,2-b]pyridin-2-yl]methyl]-1-methyl-pyrimidine-2,4-dione]"
